Values joined by “and” are separate entries in the source; they are usually repeats but may differ in a detail not shown here. Identical values can stand only once. Active and inactive are the calls of the source.
Columns and labels:
Coagulation factor XII = biological target: T1, Coagulation factor XII (Homo sapiens, UniProt P00748); type: functional;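 further: activated factor XIIa alpha cleaving a fluorogenic AMC peptide substrate; inhibitor potency from loss of enzyme activity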
T1 sequence (P00748 whole entry): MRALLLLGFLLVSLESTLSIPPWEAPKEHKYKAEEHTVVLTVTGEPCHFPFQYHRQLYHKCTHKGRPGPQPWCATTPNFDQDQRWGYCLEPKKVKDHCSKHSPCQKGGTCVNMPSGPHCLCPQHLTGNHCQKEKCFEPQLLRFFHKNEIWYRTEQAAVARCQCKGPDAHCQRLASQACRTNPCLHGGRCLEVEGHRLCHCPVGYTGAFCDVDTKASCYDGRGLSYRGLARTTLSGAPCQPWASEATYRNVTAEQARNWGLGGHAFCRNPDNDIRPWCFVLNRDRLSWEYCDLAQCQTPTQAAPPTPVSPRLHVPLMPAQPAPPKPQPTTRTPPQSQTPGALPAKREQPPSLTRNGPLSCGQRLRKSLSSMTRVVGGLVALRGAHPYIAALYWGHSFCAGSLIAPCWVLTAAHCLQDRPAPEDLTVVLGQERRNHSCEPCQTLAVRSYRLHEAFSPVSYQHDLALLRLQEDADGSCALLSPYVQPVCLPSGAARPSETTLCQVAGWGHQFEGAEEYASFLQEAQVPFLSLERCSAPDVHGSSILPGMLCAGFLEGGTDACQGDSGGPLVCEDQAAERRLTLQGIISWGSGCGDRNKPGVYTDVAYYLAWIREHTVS

[1] = viability of PTEN-deleted HCT116 cells – cell-based, HCT116 PTEN knockout, dose response (AID 1047); type: functional;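 further: HCT116 colon tumor cells with PTEN knocked out; cells exposed to compound for 60 hours before readout; potency for loss of cell viability measured by luminescence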
[2] = viability of HCT116 lacking mutant beta-catenin – cell-based, human colon tumor, dose response (AID 1045); type: functional;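 further: HCT116 colon tumor cells with beta catenin knocked out; cells exposed to compound for 60 hours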
Estrogen receptor = biological target: T2, Estrogen receptor (Homo sapiens, UniProt P03372);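 further: potency for inhibiting coactivator peptide recruitment to the receptor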
T2 sequence (P03372 whole entry): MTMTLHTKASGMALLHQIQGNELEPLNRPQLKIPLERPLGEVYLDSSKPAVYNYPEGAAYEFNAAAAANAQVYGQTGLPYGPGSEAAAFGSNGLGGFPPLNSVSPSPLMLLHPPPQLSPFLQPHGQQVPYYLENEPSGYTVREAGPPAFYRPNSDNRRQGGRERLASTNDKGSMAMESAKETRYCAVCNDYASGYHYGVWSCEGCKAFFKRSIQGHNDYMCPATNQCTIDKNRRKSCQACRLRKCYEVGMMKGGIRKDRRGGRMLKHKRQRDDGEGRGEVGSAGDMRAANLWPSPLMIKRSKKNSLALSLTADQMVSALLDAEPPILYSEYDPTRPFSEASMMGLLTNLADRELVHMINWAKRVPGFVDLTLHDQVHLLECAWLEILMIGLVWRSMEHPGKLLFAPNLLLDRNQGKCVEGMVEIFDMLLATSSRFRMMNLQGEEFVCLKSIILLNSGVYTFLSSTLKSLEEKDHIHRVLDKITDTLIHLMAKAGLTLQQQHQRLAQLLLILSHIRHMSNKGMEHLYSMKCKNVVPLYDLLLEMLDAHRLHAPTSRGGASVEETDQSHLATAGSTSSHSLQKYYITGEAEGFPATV

Keap1/Nrf2 = Keap1/Nrf2 (Homo sapiens, UniProt Q14145); assay: disruptors of Keap1 binding to Nrf2 peptide – biochemical, fluorescence polarization, cherry-picked samples, dose response (AID 588683)
Sequence of Keap1/Nrf2 (Q16236 whole entry): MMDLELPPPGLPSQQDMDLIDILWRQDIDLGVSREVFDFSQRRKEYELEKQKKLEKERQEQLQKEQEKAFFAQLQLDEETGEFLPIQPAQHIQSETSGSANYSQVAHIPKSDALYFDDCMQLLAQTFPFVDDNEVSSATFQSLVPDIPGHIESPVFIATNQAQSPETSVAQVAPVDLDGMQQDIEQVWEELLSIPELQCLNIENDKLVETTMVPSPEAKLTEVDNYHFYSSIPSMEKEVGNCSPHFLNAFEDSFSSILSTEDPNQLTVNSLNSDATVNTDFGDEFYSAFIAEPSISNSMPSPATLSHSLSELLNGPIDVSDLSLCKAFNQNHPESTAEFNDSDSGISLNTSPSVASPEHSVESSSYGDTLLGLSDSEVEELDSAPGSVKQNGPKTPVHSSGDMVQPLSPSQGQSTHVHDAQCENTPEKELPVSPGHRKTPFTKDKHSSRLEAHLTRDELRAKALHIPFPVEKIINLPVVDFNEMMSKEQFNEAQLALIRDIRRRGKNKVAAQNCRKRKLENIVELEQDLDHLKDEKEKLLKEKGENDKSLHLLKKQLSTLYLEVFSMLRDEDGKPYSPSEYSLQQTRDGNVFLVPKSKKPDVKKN
Sequence of Keap1/Nrf2 (Q14145 whole entry): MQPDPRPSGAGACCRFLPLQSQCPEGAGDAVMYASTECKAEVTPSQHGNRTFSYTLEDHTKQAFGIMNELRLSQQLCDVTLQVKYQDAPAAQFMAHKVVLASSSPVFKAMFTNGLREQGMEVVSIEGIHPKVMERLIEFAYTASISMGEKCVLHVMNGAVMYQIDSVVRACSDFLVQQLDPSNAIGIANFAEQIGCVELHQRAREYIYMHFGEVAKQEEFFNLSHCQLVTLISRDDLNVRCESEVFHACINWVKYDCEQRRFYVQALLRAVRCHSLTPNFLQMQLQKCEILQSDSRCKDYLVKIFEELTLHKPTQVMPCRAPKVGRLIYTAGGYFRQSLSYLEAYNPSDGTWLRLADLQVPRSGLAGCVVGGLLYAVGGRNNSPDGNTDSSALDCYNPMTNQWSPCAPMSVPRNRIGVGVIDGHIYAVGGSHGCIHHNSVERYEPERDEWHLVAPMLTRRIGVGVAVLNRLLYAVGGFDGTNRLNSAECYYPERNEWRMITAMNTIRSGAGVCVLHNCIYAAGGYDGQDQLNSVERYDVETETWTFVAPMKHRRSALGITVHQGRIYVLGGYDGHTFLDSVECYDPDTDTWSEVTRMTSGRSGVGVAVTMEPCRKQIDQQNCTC

ORF 73 = biological target: T3, ORF 73 (Human herpesvirus 8, UniProt O40947); assay: KSHV LANA DNA-binding disruption – biochemical, fluorescence polarization, cherry-picked samples, dose response (AID 504725); set-up: species or system Human gammaherpesvirus 8;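 further: fluorescence polarization of a labeled DNA duplex reporting LANA DNA binding; potency is for inhibitors that block LANA binding to the DNA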
T3 sequence (O40947 whole entry): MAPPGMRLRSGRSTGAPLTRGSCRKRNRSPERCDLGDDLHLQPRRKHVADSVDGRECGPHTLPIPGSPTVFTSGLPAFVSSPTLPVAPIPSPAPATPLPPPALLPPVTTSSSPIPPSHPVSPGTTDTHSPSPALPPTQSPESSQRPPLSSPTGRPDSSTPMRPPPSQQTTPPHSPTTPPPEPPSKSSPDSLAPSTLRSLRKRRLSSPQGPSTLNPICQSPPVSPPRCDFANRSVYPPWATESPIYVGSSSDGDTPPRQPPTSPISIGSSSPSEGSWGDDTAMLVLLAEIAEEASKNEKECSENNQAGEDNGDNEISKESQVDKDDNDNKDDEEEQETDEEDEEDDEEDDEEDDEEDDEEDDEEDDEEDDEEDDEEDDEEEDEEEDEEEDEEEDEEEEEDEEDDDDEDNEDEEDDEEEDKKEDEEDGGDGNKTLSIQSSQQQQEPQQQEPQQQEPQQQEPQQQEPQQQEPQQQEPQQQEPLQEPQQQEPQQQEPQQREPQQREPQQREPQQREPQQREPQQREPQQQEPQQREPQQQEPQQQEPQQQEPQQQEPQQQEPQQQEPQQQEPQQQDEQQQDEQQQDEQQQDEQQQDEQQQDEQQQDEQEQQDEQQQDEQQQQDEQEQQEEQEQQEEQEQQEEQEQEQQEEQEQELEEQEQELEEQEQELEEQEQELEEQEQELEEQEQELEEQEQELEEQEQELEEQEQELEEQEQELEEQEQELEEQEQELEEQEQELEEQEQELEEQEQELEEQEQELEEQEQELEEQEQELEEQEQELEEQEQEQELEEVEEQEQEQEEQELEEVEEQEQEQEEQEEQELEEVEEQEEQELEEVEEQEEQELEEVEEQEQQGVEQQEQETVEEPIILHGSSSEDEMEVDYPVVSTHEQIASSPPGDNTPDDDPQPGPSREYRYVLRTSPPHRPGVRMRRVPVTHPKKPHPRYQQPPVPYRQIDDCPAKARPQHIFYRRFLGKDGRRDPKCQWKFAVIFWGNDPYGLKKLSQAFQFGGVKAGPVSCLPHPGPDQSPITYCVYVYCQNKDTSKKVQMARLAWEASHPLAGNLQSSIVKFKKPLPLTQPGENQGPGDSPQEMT

14-3-3 protein gamma = biological target: T4, 14-3-3 protein gamma (Homo sapiens, UniProt P61981); assay: modulators of 14-3-3 gamma client binding – dose response (AID 711); type: functional
T4 sequence (P61981 whole entry): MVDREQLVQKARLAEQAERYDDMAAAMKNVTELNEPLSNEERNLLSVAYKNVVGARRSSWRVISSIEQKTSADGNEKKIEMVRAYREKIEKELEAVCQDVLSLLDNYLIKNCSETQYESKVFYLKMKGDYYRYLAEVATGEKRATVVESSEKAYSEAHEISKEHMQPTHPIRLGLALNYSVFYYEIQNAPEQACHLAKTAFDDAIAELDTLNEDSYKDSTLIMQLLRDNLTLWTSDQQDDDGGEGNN

A-375 = assay: proliferation inhibition in MITF-low A375 cells – cell-based, cherry-pick samples, set 2, counter-screen for MITF modulator project, dose response (AID 540335); type: functional; details: Homo sapiens
[3] = THP-1 cell cytotoxicity, dose response, cytotoxicity control for non-replicating M. tuberculosis project (AID 489025); type: functional
[4] = Vero E6 cell cytotoxicity, dose response, cytotoxicity control for non-replicating M. tuberculosis project, secondary assay (AID 492998); type: functional, VeroE6; details: Vero C1008
[5] = biological target: T5, Ubiquitin-conjugating enzyme E2 N (Homo sapiens, UniProt P61088); type: functional;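 further: Dose-response confirmation in a TR-FRET assay detecting UBC13-driven polyubiquitin chain formation, inhibition measured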
T5 sequence (P61088 whole entry): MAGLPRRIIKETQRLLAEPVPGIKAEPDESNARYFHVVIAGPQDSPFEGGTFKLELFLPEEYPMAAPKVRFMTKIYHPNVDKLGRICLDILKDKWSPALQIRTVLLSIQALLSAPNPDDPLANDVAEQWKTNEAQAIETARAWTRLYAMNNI

cells = type: functional
HEK293 [6] = assay: cells; details: Homo sapiens
HEK293 [7] = assay: cells; details: Homo sapiens; remark: listed apart in the source
[8] = biological target: E3 ubiquitin-protein ligase Mdm2 (Homo sapiens, UniProt Q00987); assay: MDM2-luc reporter signal enhancers, multi-concentration potency testing, MDM2 ubiquitin-protein ligase inhibitor program, whole-cell format, luminescence detection, 384-well microplate (AID 1394); type: functional;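 further: MDM2 E3 inhibitors raise luminescence so EC50 is for signal enhancement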
Sequence of E3 ubiquitin-protein ligase Mdm2 (Q00987 whole entry): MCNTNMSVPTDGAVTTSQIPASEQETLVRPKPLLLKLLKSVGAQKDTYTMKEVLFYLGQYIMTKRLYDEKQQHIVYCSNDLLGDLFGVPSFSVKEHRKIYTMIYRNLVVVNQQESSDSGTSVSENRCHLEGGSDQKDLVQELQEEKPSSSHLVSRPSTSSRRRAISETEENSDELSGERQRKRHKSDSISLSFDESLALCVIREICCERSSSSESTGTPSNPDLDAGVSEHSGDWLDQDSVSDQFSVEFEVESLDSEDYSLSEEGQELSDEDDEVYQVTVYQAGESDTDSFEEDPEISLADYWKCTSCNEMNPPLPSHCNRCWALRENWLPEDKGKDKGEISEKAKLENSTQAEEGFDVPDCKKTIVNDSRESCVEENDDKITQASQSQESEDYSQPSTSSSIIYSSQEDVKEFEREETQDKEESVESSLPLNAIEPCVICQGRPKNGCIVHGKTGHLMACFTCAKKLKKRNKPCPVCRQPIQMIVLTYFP

[9] = biological target: T6, Microphthalmia-associated transcription factor (Homo sapiens, UniProt O75030); assay: reducers of TRPM1 reporter luminescence, concentration series – cell-based, SK-MEL-5, cherry-picked, set 3, MITF inhibitor project, dose response (AID 493073); type: functional;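 further: SK-MEL-5 melanoma cells with luciferase driven by the MITF target TRPM1 promoter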
T6 sequence (O75030 whole entry): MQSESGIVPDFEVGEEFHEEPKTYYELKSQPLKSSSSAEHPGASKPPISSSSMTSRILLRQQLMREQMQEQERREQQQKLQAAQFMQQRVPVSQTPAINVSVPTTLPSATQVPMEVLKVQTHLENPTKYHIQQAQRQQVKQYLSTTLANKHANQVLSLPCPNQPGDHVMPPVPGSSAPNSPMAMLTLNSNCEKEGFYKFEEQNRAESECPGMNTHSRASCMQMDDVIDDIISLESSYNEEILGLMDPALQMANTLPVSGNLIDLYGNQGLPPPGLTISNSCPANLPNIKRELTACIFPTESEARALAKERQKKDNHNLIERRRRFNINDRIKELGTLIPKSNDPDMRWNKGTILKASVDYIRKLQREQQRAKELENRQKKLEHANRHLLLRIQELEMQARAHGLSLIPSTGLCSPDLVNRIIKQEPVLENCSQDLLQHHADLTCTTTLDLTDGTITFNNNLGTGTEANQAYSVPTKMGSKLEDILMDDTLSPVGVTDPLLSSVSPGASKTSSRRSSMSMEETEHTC

Phosphomannomutase 2 = biological target: T7, Phosphomannomutase 2 (Homo sapiens, UniProt O15305); assay: Counter screen SAR assay for PMM2 inhibitors via a fluorescence intensity assay. [Related pubchem assays (depositor defined):AID1545, AID1574]
T7 sequence (O15305 whole entry): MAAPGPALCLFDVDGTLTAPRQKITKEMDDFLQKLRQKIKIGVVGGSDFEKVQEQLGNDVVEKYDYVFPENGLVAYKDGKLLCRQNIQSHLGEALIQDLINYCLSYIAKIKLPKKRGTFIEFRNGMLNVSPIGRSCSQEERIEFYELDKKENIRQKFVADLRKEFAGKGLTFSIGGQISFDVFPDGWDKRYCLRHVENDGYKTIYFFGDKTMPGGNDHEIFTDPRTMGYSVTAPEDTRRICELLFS

[10] = biological target: T8, Mannose-6-phosphate isomerase (Homo sapiens, UniProt P34949); assay: phosphomannose isomerase inhibition – biochemical, fluorescence intensity, confirmation (AID 1535)
T8 sequence (P34949 whole entry): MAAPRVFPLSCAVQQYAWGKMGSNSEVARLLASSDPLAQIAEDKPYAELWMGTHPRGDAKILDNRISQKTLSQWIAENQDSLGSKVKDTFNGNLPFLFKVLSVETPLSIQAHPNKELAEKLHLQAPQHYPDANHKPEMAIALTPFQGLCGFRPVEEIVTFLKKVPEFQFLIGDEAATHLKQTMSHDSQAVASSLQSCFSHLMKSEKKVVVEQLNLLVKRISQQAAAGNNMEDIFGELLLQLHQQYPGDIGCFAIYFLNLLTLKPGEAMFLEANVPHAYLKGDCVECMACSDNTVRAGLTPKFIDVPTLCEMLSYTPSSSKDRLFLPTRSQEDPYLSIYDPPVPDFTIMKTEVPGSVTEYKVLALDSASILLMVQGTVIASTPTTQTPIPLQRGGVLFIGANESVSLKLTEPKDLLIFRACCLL

[11] = viability loss in CEM21 cells – cell-based, CellTiter-Glo luminescence, cherry-picked, cytotoxicity control for viral fusion inhibitor project, dose response (AID 652042); type: functional;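 further: potency for signal decrease meaning cytotoxicity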
[12] = HIV-1 AD8 envelope cell-cell fusion blockers – cherry-pick, dose response (AID 652062); type: functional, cell-based;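 further: luciferase signal from cell-cell fusion driven by HIV-1 clade B AD8 Env; potency is for inhibitors of fusion seen as a drop in luminescence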
[13] = blockers of HIV-1 ZM109 envelope-driven cell-cell fusion – HeLa effector, CEM target cells, luciferase, cherry-pick, dose response (AID 652058); type: functional, cell-based;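 further: luciferase signal from HIV-1 Env mediated cell-cell fusion of effector and target cells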
[14] = blockers of HIV-1 envelope-mediated cell-cell fusion – cherry-pick, dose response (AID 652057); type: functional, cell-based
[15] = off-target signal loss in HeLa-CEM21 co-culture – HeLa F-luc CTL cells, cherry-picked, counter-screen for HIV-1 Env fusion inhibitor project, dose response (AID 652040); type: functional, cell-based;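 further: potency for signal decrease marking cytotoxic or nonspecific inhibition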

Cc1ccc(N/C=C2/C(=O)N(c3ccc4c(c3)OCO4)C(=O)c3ccccc32)cc1
IC50 (Coagulation factor XII): > 50 µM (inactive)
EC50 [1]: 8.15 µM (active)
EC50 [2]: 9.32 µM (active)
IC50 (Estrogen receptor): 19.8 µM (active)

c1ccc2c(c1)CCCN2Cc1nnnn1CC1CCCO1 (centres undefined)
AC50 (Keap1/Nrf2): > 52 µM (inactive)

O=C(O)c1ccccc1C1=Nc2ccc(O)cc2Oc2cc(O)ccc21
AC50 (Keap1/Nrf2): 4.97 µM (active)
AC50 (ORF 73): 5.76 µM (active)
IC50 (14-3-3 protein gamma): 5.02 µM (active)

Cc1ccc2nc(N(CCCN(C)C)C(=O)c3ccc4c(c3)CCCC4)sc2c1
AC50 (A-375): 19.7 µM (active)
EC50 [1]: 15.2 µM (active)
EC50 [2]: 12.1 µM (active)
CC50 [3]: 16.5 µM (active)
CC50 [4]: > 20 µM (active)
IC50 [5]: > 20 µM (inactive)
IC50 (cells): 22.8 µM (active)

COc1ccc(C2CC(C(F)(F)F)n3ncc(C(=O)NCC4CCCO4)c3N2)cc1OC (centres undefined)
EC50 (HEK293 [6]): > 59.6 µM (inactive)
EC50 (HEK293 [7]): > 59.6 µM (inactive)

O=C1NC(=O)N(CCc2ccc(F)cc2)C(=O)/C1=C\C=C\c1ccccc1
AC50 (A-375): 33.6 µM (active)
EC50 [8]: 0.13 µM (not active)
AC50 [9]: 8.26 µM (active)

Clc1nss/c1=N\c1cccnc1
IC50 (Phosphomannomutase 2): > 65.8 µM (active)
IC50 [10]: 16.7 µM (active) and 13.2 µM (active)

COc1ccc(CC(N)c2csc(NC(=O)Nc3ccccc3Cc3ccccc3)n2)cc1 (centres undefined)
AC50 [11]: 12.4 µM (active)
AC50 [12]: 0.832 µM (active)
EC50 (HEK293 [6]): > 59.7 µM (inactive)
AC50 [13]: 0.304 µM (active)
EC50 (HEK293 [7]): > 59.7 µM (inactive)
AC50 [14]: < 0.26 µM (active)
AC50 [15]: 0.381 µM (active)

From ChEMBL document CHEMBL1201862, “PubChem BioAssay data set” (2004)
